# Experimental data: BindingDB's records for doi:10.1016/j.bmcl.2015.11.049 (Genomics Institute of The Novartis Research Foundation, 2016)
# Experiments:
# [1] = Inhibition of PDK1 (unknown origin)
# [2] = Inhibition of […] (unknown origin) expressed in human KARPAS-299 cells assessed as reduction in cell growth
# [3] = Inhibition of […] (unknown origin) expressed in mouse BaF3 cells assessed as reduction in cell proliferation incubated for 2 to 3 days by Bright-Glo luciferase assay
# [4] = Inhibition of Tel fused InsR (unknown origin) expressed in mouse BaF3 cells assessed as reduction in cell proliferation incubated for 2 to 3 days by Bright-Glo luciferase assay
Compound,IC50 [1],IC50 [2],IC50 [3],IC50 [4]
Cc1cc2c(Nc3ccccc3S(=O)(=O)C(C)C)nc(Nc3cc(C)c(C4CCN(C)CC4)cc3OC(C)C)nc2[nH]1,–,–,1.3 µM,–
Cc1cc(Nc2nc(Nc3ccccc3S(=O)(=O)C(C)C)c3cccnc3n2)c(OC(C)C)cc1C1CCNCC1,–,–,3.17 µM,–
Cc1cc(Nc2cc(Nc3ccccc3S(=O)(=O)C(C)C)c3cc[nH]c3n2)c(OC(C)C)cc1C1CCN(C)CC1,–,7.31 µM,1.43 µM,–
Cc1cc(Nc2nc(Nc3ccccc3S(=O)(=O)C(C)C)c3ccccc3n2)c(OC(C)C)cc1C1CCN(C)CC1,–,–,1.08 µM,–

# These reach a lower IC50 [3]. Values come first.
IC50 [1],IC50 [2],IC50 [3],IC50 [4],Compound
> 10 µM,0.026 µM,0.02 µM,0.429 µM,"Cc1cc(Nc2nc(Nc3ccccc3S(=O)(=O)C(C)C)c3c(C)[nH]nc3n2)c(OC(C)C)cc1C1CCN(C)CC1 [US8592432, 34]"
–,–,0.15 µM,–,Cc1cc(Nc2nc(Nc3ccccc3S(=O)(=O)C(C)C)c3c(N)n[nH]c3n2)c(OC(C)C)cc1C1CCN(C)CC1
–,–,0.013 µM,–,Cc1cc(Nc2nc(Nc3ccccc3S(=O)(=O)C(C)C)c3cn[nH]c3n2)c(OC(C)C)cc1C1CCN(C)CC1
–,–,0.033 µM,–,Cc1cc(Nc2nc(Nc3ccccc3S(=O)(=O)C(C)C)c3cn[nH]c3n2)c(OC(C)C)cc1C1CCNCC1
–,–,0.047 µM,–,Cc1cc(Nc2nc(Nc3ccccc3S(=O)(=O)C(C)C)c3cc[nH]c3n2)c(OC(C)C)cc1C1CCNCC1
